Experimental data published in patent US12685735B2 (Foghorn Therapeutics Inc., priority 2020, dated 2026).
Like-named read-outs stand apart in the source and are kept apart here.

Experiments:
BRM = BRM (Homo sapiens, UniProt P51531); test: ATPase catalytic activity assay of BRM (ADP-Glo); format: biochemical; settings: for IC50: read-out: BRM IC50 (μM)*
Method: (§1) The ATPase catalytic activity of BRM or BRG-1 was measured by the in vitro biochemical assay using ADP-Glo™ (Promega, V9102). The ADP-Glo™ kinase assay is performed in two steps once the reaction is complete. The first step is to deplete any unconsumed ATP in the reaction. The second step is to convert the reaction product ADP to ATP, which will be utilized by the luciferase to generate luminesce and be detected by a luminescence reader, such as Envision.
(§2) Then following addition of 5 μL of ADP-Glo™ Reagent provided in the kit, the reaction incubates at room temperature for 40 minutes. Then 10 μL of Kinase Detection Reagent provided in the kit is added to convert ADP to ATP, and the reaction incubates at room temperature for 60 minutes. Finally, luminescence measurement is collected with a plate-reading luminometer, such as Envision.
as §1, with “The” for “The ATPase catalytic activity of BRM or BRG-1 was measured by the in vitro biochemical assay using ADP-Glo™ (Promega, V9102). The”

BRG-1 = BRG-1 (Homo sapiens, UniProt P51532); test: ATPase catalytic activity assay of BRG-1 (ADP-Glo); format: biochemical; settings: ATPase catalytic activity, ADP-Glo; for IC50: read-out: BRG1 IC50 (μM)*; for Emax: read-out: BRG1 Max % Inhibition
Method: as §1, §2
as §1, with “The” for “The ATPase catalytic activity of BRM or BRG-1 was measured by the in vitro biochemical assay using ADP-Glo™ (Promega, V9102). The”

Sequence of BRG-1 (P51532 whole entry): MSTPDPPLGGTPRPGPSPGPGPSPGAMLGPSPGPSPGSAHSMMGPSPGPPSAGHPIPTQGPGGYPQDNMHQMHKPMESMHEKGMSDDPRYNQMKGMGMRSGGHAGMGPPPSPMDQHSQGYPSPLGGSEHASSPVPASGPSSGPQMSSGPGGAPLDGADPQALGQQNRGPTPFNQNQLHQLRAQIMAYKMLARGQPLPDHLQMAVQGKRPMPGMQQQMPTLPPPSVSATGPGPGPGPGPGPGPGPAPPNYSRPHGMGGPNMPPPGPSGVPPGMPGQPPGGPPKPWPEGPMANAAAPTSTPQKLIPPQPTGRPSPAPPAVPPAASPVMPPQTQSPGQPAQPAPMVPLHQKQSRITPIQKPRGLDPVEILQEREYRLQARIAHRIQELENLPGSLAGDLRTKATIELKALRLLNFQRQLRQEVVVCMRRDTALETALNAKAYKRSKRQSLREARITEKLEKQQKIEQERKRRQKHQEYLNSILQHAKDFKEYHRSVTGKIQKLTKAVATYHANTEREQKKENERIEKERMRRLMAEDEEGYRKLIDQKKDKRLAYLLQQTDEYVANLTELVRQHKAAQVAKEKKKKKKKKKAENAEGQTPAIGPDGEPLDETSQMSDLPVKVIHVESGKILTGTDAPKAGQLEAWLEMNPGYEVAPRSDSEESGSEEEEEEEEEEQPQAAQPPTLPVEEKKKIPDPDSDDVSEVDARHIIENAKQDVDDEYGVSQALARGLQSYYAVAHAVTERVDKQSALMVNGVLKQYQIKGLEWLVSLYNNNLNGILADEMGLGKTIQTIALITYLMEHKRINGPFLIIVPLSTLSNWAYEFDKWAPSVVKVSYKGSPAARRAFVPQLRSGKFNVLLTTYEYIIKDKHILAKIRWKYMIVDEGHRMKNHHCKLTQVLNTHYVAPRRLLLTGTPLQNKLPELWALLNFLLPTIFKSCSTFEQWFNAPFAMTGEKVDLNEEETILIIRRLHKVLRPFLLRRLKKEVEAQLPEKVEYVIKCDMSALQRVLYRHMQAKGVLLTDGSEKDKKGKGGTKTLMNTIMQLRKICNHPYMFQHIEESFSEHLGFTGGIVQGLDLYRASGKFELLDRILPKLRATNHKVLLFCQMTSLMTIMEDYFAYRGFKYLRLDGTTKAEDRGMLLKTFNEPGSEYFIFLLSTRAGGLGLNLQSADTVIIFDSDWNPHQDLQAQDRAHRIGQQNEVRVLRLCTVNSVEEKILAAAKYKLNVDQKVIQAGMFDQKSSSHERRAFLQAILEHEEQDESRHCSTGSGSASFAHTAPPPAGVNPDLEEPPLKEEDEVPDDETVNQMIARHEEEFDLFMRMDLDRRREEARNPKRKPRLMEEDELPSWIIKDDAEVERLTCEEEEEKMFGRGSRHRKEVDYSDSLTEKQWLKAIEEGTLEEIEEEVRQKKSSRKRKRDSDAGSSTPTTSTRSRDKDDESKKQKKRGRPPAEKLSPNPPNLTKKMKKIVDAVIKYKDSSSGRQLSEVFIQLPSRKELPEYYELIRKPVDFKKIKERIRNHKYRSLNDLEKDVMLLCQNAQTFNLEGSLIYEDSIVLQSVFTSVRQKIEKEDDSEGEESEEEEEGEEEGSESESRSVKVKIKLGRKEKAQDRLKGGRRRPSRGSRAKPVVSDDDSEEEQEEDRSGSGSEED
Sequence of BRM (P51531 whole entry): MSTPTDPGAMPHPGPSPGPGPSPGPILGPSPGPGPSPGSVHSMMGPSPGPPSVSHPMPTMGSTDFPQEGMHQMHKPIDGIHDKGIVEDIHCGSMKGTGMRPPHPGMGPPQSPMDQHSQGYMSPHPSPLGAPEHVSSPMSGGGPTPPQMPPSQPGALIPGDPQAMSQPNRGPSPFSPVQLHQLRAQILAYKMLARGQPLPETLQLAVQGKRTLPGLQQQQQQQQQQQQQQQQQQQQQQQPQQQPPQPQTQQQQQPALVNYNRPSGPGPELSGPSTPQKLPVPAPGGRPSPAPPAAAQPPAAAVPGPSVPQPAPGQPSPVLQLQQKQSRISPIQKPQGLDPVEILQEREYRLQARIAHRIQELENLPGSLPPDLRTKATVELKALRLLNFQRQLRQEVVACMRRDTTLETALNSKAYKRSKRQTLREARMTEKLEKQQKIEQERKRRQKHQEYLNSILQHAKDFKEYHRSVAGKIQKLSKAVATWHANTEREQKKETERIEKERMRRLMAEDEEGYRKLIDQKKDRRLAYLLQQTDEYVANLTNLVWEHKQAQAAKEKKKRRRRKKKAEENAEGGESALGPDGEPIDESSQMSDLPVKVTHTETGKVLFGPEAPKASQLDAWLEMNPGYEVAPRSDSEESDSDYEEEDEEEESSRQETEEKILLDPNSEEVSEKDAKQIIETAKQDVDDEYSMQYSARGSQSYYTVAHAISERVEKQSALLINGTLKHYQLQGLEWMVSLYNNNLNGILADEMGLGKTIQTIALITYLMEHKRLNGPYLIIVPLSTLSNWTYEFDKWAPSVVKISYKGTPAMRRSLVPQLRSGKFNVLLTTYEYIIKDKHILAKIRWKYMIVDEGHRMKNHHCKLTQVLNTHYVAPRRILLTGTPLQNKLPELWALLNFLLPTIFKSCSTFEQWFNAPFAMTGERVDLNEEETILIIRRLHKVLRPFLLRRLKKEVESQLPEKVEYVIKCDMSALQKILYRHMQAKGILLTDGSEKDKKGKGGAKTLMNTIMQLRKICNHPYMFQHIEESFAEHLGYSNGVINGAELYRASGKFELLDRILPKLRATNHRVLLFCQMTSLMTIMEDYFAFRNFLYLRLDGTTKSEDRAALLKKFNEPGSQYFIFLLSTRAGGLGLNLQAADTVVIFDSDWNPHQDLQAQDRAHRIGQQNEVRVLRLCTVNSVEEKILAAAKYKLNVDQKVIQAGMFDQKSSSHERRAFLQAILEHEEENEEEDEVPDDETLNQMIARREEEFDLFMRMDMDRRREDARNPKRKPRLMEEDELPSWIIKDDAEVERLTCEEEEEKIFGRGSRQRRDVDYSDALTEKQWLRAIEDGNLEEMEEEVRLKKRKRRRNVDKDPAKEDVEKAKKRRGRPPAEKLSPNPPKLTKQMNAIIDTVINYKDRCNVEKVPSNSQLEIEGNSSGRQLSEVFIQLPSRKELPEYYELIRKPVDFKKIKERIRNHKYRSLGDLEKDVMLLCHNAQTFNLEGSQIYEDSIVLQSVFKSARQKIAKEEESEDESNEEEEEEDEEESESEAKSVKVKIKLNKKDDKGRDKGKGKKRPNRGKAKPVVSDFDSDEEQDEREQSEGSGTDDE

SMILES: C[C@@H]1CN(c2cccc(-c3csc(NC(=O)CNC(=O)c4ccc5c(c4)C(C)(CO)COC5)n3)c2)C[C@H](C)O1 (stereo in doubt) [Compound 373, (S)-N-(2-((4-(3-((cis)-2,6-dimethylmorpholino)phenyl)thiazol-2-yl)amino)-2-oxoethyl)-4-(hydroxymethyl)-4-methylisochromane-6-carboxamide]
- BRM Max % Inhibition (BRM): >90%
- IC50 (BRM): 0.1 to 1 µM
- IC50 (BRG-1): 1 to 5 µM
- Emax (BRG-1): > 90%

SMILES: CC1(C#N)CCOc2ccc(C(=O)NCC(=O)Nc3nc(-c4cccc([C@H]5CC5(F)F)n4)cs3)cc21 (stereo in doubt) [Compound 378, (S)-4-cyano-N-(2-((4-(6-((R)-2,2-difluorocyclopropyl)pyridin-2-yl)thiazol-2-yl)amino)-2-oxoethyl)-4-methylchromane-6-carboxamide]
- BRM Max % Inhibition (BRM): >95%
- IC50 (BRM): 0.1 to 1 µM
- IC50 (BRG-1): 1 to 5 µM
- Emax (BRG-1): > 95%

SMILES: CC1(C#N)CCOc2ccc(C(=O)NCC(=O)Nc3nc(-c4cccc([C@@H]5CC5(F)F)n4)cs3)cc21 (stereo in doubt) [Compound 380, (S)-4-cyano-N-(2-((4-(6-((S)-2,2-difluorocyclopropyl)pyridin-2-yl)thiazol-2-yl)amino)-2-oxoethyl)-4-methylchromane-6-carboxamide]
- BRM Max % Inhibition (BRM): >85%
- IC50 (BRM): 0.1 to 1 µM
- IC50 (BRG-1): 1 to 5 µM
- Emax (BRG-1): > 85%

SMILES: C[C@@H]1CN(c2cccc(-c3csc(NC(=O)CNC(=O)c4cccc([C@@]5(C)COC[C@@H]5O)c4)n3)n2)C[C@H](C)O1 (stereo in doubt) [Compound 413, N-(2-((4-(6-((cis)-2,6-dimethylmorpholino)pyridin-2-yl)thiazol-2-yl)amino)-2-oxoethyl)-3-((cis)-4-hydroxy-3-methyltetrahydrofuran-3-yl)benzamide]
- BRM Max % Inhibition (BRM; 30 nM BRM, 400 μM ATP): >95%
- IC50 (BRM; 30 nM BRM, 400 μM ATP): 0.1 to 1 µM
- IC50 (BRG-1; 30 nM BRG-1, 400 μM ATP): 1 to 5 µM
- Emax (BRG-1; 30 nM BRG-1, 400 μM ATP): > 95%

SMILES: C[C@H](NC(=O)c1ccc2c(c1)C(C)(CO)CC2)C(=O)Nc1nc(-c2cccc(N3CCC3)c2)cs1 (stereo in doubt) [Compound 414, (S)-N-((S)-1-((4-(3-(azetidin-1-yl)phenyl)thiazol-2-yl)amino)-1-oxopropan-2-yl)-3-(hydroxymethyl)-3-methyl-2,3-dihydro-1H-indene-5-carboxamide]
- BRM Max % Inhibition (BRM; 30 nM BRM, 400 μM ATP): >95%
- IC50 (BRM; 30 nM BRM, 400 μM ATP): 0.1 to 1 µM
- IC50 (BRG-1; 30 nM BRG-1, 400 μM ATP): 0.1 to 1 µM
- Emax (BRG-1; 30 nM BRG-1, 400 μM ATP): > 95%

SMILES: CC1(C#N)CCOc2ccc(C(=O)NCC(=O)Nc3nc(-c4cccc(N5CCC5)c4)cs3)cc21 (stereo in doubt) [Compound 416, (S)-N-(2-((4-(3-(azetidin-1-yl)phenyl)thiazol-2-yl)amino)-2-oxoethyl)-4-cyano-4-methylchromane-6-carboxamide]
- BRM Max % Inhibition (BRM; 30 nM BRM, 400 μM ATP): >95%
- IC50 (BRM; 30 nM BRM, 400 μM ATP): < 0.1 µM
- IC50 (BRG-1; 30 nM BRG-1, 400 μM ATP): 0.1 to 1 µM
- Emax (BRG-1; 30 nM BRG-1, 400 μM ATP): > 95%

SMILES: C[C@@H]1CN(c2cccc(-c3csc(NC(=O)CNC(=O)c4ccc5c(c4)C(C)(C#N)CO5)n3)c2)C[C@H](C)O1 (stereo in doubt) [Compound 417, (R)-3-cyano-N-(2-((4-(3-((cis)-2,6-dimethylmorpholino)phenyl)thiazol-2-yl)amino)-2-oxoethyl)-3-methyl-2,3-dihydrobenzofuran-5-carboxamide]
- BRM Max % Inhibition (BRM; 30 nM BRM, 400 μM ATP): >95%
- IC50 (BRM; 30 nM BRM, 400 μM ATP): < 0.1 µM
- IC50 (BRG-1; 30 nM BRG-1, 400 μM ATP): 0.1 to 1 µM
- Emax (BRG-1; 30 nM BRG-1, 400 μM ATP): > 95%

SMILES: C[C@@H]1CN(c2cccc(-c3csc(NC(=O)CNC(=O)c4ccc5c(c4)C(C)(C#N)COC5)n3)n2)C[C@H](C)O1 (stereo in doubt) [Compound 420, (R)-4-cyano-N-(2-((4-(6-((cis)-2,6-dimethylmorpholino)pyridin-2-yl)thiazol-2-yl)amino)-2-oxoethyl)-4-methylisochromane-6-carboxamide]
- BRM Max % Inhibition (BRM; 30 nM BRM, 400 μM ATP): >95%
- IC50 (BRM; 30 nM BRM, 400 μM ATP): < 0.1 µM
- IC50 (BRG-1; 30 nM BRG-1, 400 μM ATP): < 0.1 µM
- Emax (BRG-1; 30 nM BRG-1, 400 μM ATP): > 95%

SMILES: C[C@@H]1CN(c2cccc(-c3csc(NC(=O)CNC(=O)c4ccc5c(c4)C(C)(C#N)COC5)n3)n2)C[C@H](C)O1 (stereo in doubt) [Compound 421, (S)-4-cyano-N-(2-((4-(6-((cis)-2,6-dimethylmorpholino)pyridin-2-yl)thiazol-2-yl)amino)-2-oxoethyl)-4-methylisochromane-6-carboxamide]
- BRM Max % Inhibition (BRM; 30 nM BRM, 400 μM ATP): >80%
- IC50 (BRM; 30 nM BRM, 400 μM ATP): 1 to 5 µM
- IC50 (BRG-1; 30 nM BRG-1, 400 μM ATP): > 5 µM
- Emax (BRG-1; 30 nM BRG-1, 400 μM ATP): > 80%

SMILES: CC1(C#N)CCOc2ccc(C(=O)NCC(=O)Nc3nc(-c4cccc(C5(F)COC5)c4)cs3)cc21 (stereo in doubt) [Compound 422, (S)-4-cyano-N-(2-((4-(3-(3-fluorooxetan-3-yl)phenyl)thiazol-2-yl)amino)-2-oxoethyl)-4-methylchromane-6-carboxamide]
- BRM Max % Inhibition (BRM; 30 nM BRM, 400 μM ATP): >95%
- IC50 (BRM; 30 nM BRM, 400 μM ATP): 0.1 to 1 µM
- IC50 (BRG-1; 30 nM BRG-1, 400 μM ATP): 1 to 5 µM
- Emax (BRG-1; 30 nM BRG-1, 400 μM ATP): > 95%

SMILES: CC1(C#N)CCOc2ccc(C(=O)NCC(=O)Nc3nc(-c4cccc(C5COC5)c4)cs3)cc21 (stereo in doubt) [Compound 423, (S)-4-cyano-4-methyl-N-(2-((4-(3-(oxetan-3-yl)phenyl)thiazol-2-yl)amino)-2-oxoethyl)chromane-6-carboxamide]
- BRM Max % Inhibition (BRM; 30 nM BRM, 400 μM ATP): >95%
- IC50 (BRM; 30 nM BRM, 400 μM ATP): < 0.1 µM
- IC50 (BRG-1; 30 nM BRG-1, 400 μM ATP): 0.1 to 1 µM
- Emax (BRG-1; 30 nM BRG-1, 400 μM ATP): > 95%

SMILES: C[C@@H]1CN(c2cccc(-c3csc(NC(=O)CNC(=O)c4cccc([C@H]5COC[C@H]5O)c4)n3)n2)C[C@H](C)O1 (stereo in doubt) [Compound 425, N-(2-((4-(6-((cis)-2,6-dimethylmorpholino)pyridin-2-yl)thiazol-2-yl)amino)-2-oxoethyl)-3-((trans)-4-hydroxytetrahydrofuran-3-yl)benzamide]
- BRM Max % Inhibition (BRM; 30 nM BRM, 400 μM ATP): >85%
- IC50 (BRM; 30 nM BRM, 400 μM ATP): 0.1 to 1 µM
- IC50 (BRG-1; 30 nM BRG-1, 400 μM ATP): > 5 µM
- Emax (BRG-1; 30 nM BRG-1, 400 μM ATP): > 85%

SMILES: C[C@@H]1CN(c2cccc(-c3csc(NC(=O)CNC(=O)c4ccnc(C(C)(C#N)CO)c4)n3)c2)C[C@H](C)O1 (stereo in doubt) [Compound 427, 2-((R)-2-cyano-1-hydroxypropan-2-yl)-N-(2-((4-(3-((cis)-2,6-dimethylmorpholino)phenyl)thiazol-2-yl)amino)-2-oxoethyl)isonicotinamide]
- BRM Max % Inhibition (BRM; 30 nM BRM, 400 μM ATP): >85%
- IC50 (BRM; 30 nM BRM, 400 μM ATP): 0.1 to 1 µM
- IC50 (BRG-1; 30 nM BRG-1, 400 μM ATP): > 5 µM
- Emax (BRG-1; 30 nM BRG-1, 400 μM ATP): > 85%

SMILES: CC1(C#N)CCOc2ccc(C(=O)NCC(=O)Nc3nc(-c4cccc([C@H]5CC5(F)F)c4)cs3)cc21 (stereo in doubt) [Compound 428, (S)-4-cyano-N-(2-((4-(3-((R)-2,2-difluorocyclopropyl)phenyl)thiazol-2-yl)amino)-2-oxoethyl)-4-methylchromane-6-carboxamide]
- BRM Max % Inhibition (BRM; 30 nM BRM, 400 μM ATP): >95%
- IC50 (BRM; 30 nM BRM, 400 μM ATP): < 0.1 µM
- IC50 (BRG-1; 30 nM BRG-1, 400 μM ATP): 0.1 to 1 µM
- Emax (BRG-1; 30 nM BRG-1, 400 μM ATP): > 95%

SMILES: CC1(C#N)CCOc2ccc(C(=O)NCC(=O)Nc3nc(-c4cccc([C@@H]5CC5(F)F)c4)cs3)cc21 (stereo in doubt) [Compound 429, (S)-4-cyano-N-(2-((4-(3-((S)-2,2-difluorocyclopropyl)phenyl)thiazol-2-yl)amino)-2-oxoethyl)-4-methylchromane-6-carboxamide]
- BRM Max % Inhibition (BRM; 30 nM BRM, 400 μM ATP): >95%
- IC50 (BRM; 30 nM BRM, 400 μM ATP): < 0.1 µM
- IC50 (BRG-1; 30 nM BRG-1, 400 μM ATP): 1 to 5 µM
- Emax (BRG-1; 30 nM BRG-1, 400 μM ATP): > 95%

SMILES: CC1(C#N)CCOc2ccc(C(=O)NCC(=O)Nc3nc(-c4cccc(C(F)F)n4)cs3)cc21 (stereo in doubt) [Compound 430, (S)-4-cyano-N-(2-((4-(6-(difluoromethyl)pyridin-2-yl)thiazol-2-yl)amino)-2-oxoethyl)-4-methylchromane-6-carboxamide]
- BRM Max % Inhibition (BRM; 30 nM BRM, 400 μM ATP): >95%
- IC50 (BRM; 30 nM BRM, 400 μM ATP): 0.1 to 1 µM
- IC50 (BRG-1; 30 nM BRG-1, 400 μM ATP): 1 to 5 µM
- Emax (BRG-1; 30 nM BRG-1, 400 μM ATP): > 95%

SMILES: COc1cccc(-c2csc(NC(=O)CNC(=O)c3ccc4c(c3)C(C)(C#N)CCO4)n2)c1 (stereo in doubt) [Compound 431, (S)-4-cyano-N-(2-((4-(3-methoxyphenyl)thiazol-2-yl)amino)-2-oxoethyl)-4-methylchromane-6-carboxamide]
- BRM Max % Inhibition (BRM; 30 nM BRM, 400 μM ATP): >95%
- IC50 (BRM; 30 nM BRM, 400 μM ATP): < 0.1 µM
- IC50 (BRG-1; 30 nM BRG-1, 400 μM ATP): 0.1 to 1 µM
- Emax (BRG-1; 30 nM BRG-1, 400 μM ATP): > 95%

SMILES: Cc1cncc(-c2cccc(-c3csc(NC(=O)CNC(=O)c4ccc5c(c4)C(C)(CO)CC5)n3)c2)n1 (stereo in doubt) [Compound 432, (S)-3-(hydroxymethyl)-3-methyl-N-(2-((4-(3-(6-methylpyrazin-2-yl)phenyl)thiazol-2-yl)amino)-2-oxoethyl)-2,3-dihydro-1H-indene-5-carboxamide]
- BRM Max % Inhibition (BRM; 30 nM BRM, 400 μM ATP): >95%
- IC50 (BRM; 30 nM BRM, 400 μM ATP): < 0.1 µM
- IC50 (BRG-1; 30 nM BRG-1, 400 μM ATP): 0.1 to 1 µM
- Emax (BRG-1; 30 nM BRG-1, 400 μM ATP): > 95%

SMILES: CC1(C#N)CCOc2ccc(C(=O)NCC(=O)Nc3nc(-c4cccc(C5CC5)n4)cs3)cc21 (stereo in doubt) [Compound 439, (S)-4-cyano-N-(2-((4-(6-cyclopropylpyridin-2-yl)thiazol-2-yl)amino)-2-oxoethyl)-4-methylchromane-6-carboxamide]
- BRM Max % Inhibition (BRM; 30 nM BRM, 400 μM ATP): >95%
- IC50 (BRM; 30 nM BRM, 400 μM ATP): 0.1 to 1 µM
- IC50 (BRG-1; 30 nM BRG-1, 400 μM ATP): 1 to 5 µM
- Emax (BRG-1; 30 nM BRG-1, 400 μM ATP): > 95%
